The record followed here is patent publication US8513238B2 (Hoffmann-La Roche Inc., priority 2010, dated 2013).

The structures appear in SMILES notation. Where a name gives a salt, the structure may show the parent alone.

For this assay, the target named is T1, human V1a receptor (Homo sapiens, UniProt P37288).
T1 construct: expressed in transfected cells; host or cells: HEK293 cells, transiently transfected; membranes prepared
T1 sequence (P37288 whole entry): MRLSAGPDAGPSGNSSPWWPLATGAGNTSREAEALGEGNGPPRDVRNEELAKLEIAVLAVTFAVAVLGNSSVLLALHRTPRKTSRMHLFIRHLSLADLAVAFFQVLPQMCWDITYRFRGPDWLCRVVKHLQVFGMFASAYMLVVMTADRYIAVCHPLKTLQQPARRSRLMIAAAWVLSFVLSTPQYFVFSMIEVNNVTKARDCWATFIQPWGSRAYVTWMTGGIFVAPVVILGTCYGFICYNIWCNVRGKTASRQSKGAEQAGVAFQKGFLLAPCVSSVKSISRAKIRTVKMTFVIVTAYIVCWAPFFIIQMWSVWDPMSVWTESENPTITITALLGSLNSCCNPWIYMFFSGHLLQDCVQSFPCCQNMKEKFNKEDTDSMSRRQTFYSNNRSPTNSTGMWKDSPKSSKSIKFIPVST
The assay can be described thus: human V1a receptor binding (3H-Vasopressin SPA, HEK293 membranes). The settings on record: membranes of HEK293 cells transiently transfected with human V1a receptor, Ki by Cheng-Prussoff, read-out: pKi (hV1a) (converted). The method, boiled down: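 HEK293 membranes transiently expressing cloned human V1a receptor, bound to yttrium silicate SPA beads in Tris/NaCl/KCl/CaCl2/MgCl2 buffer. Test compounds in 2% DMSO competed with 3H-vasopressin (4 nM solution added) for 1 h at room temperature; non-specific binding defined with cold vasopressin. IC50 from non-linear fit, Ki via Cheng-Prusoff.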
Turning to `Cc1nc([C@H]2CC[C@H](c3nnc4n3-c3ccc(Cl)cc3CNC4)CC2)cs1` [Example 20, trans-8-Chloro-1-[4-(2-methyl-thiazol-4-yl)-cyclohexyl]-5,6-dihydro-4H-2,3,5,10b-tetraaza-benzo[e]azulene], the Ki is 12.3 nM. With `Cc1cnc([C@H]2CC[C@H](c3nnc4n3-c3ccc(Cl)cc3CN(C(=O)OC(C)(C)C)C4)CC2)o1` [Example 7, trans-8-Chloro-1-[4-(5-methyl-oxazol-2-yl)-cyclohexyl]-4H,6H-2,3,5,10b-tetraaza-benzo[e]azulene-5-carboxylic acid tert-butyl ester] the figure was 0.603 nM. Take `CC(C)(C)OC(=O)N1Cc2cc(Cl)ccc2-n2c(nnc2[C@H]2CC[C@H](c3onc4c3CCCC4)CC2)C1` [Example 60, trans-8-Chloro-1-[4-(4,5,6,7-tetrahydro-benzo[c]isoxazol-3-yl)-cyclohexyl]-4H,6H-2,3,5,10b-tetraaza-benzo[e]azulene-5-carboxylic acid tert-butyl ester]: the Ki is 15.5 nM. The value for `CCc1cc([C@H]2CC[C@@H](c3nnc4n3-c3ccc(Cl)cc3CNC4)CC2)no1` [Example 50, cis-8-Chloro-1-[4-(5-ethyl-isoxazol-3-yl)-cyclohexyl]-5,6-dihydro-4H-2,3,5,10b-tetraaza-benzo[e]azulene hydrochloride] was 182 nM; that for `Cc1nc([C@H]2CC[C@H](c3nnc4n3-c3ccc(Cl)cc3CNC4)CC2)no1` [Example 73, trans-8-Chloro-1-[4-(5-methyl-[1,2,4]oxadiazol-3-yl)-cyclohexyl]-5,6-dihydro-4H-2,3,5,10b-tetraaza-benzo[e]azulene hydrochloride] was 15.8 nM; that for `Cc1nn([C@H]2CC[C@H](c3nnc4n3-c3ccc(Cl)cc3CN(C(=O)OC(C)(C)C)C4)CC2)c(C)c1C` [Example 118, trans-8-Chloro-1-[4-(3,4,5-trimethyl-pyrazol-1-yl)-cyclohexyl]-4H,6H-2,3,5,10b-tetraaza-benzo[e]azulene-5-carboxylic acid tert-butyl ester] was 0.832 nM.
